Results taken from US20200077658A1, “Pesticidal Compounds” (BASF SE, priority 2016, published 2020).

Experiments:
Format in all cases: in vivo
[1] = tested on: tobacco budworm (Heliothis virescens); experiment: Action on tobacco budworm (Heliothis virescens), 96-well microtiter plate diet test; settings: 120 h, egg and larval mortality after 5 days, read-out: mortality in comparison with untreated controls
Protocol: For evaluating control of tobacco budworm (Helliothis virescens) the test unit consisted of 96-well-microtiter plates containing an insect diet and 15-25 H. virescens eggs.
The compounds were formulated using a solution containing 75% v/v water and 25% v/v DMSO. Different concentrations of formulated compounds were sprayed onto the insect diet at 10 μl, using a custom built micro atomizer, at two replications.
After application, microtiter plates were incubated at about 28±1° C. and about 80±5% relative humidity for 5 days. Egg and larval mortality was then visually assessed.

[2] = tested on: Southern Armyworm (Spodoptera eridania), 2nd Instar Larvae; experiment: Action on southern armyworm (Spodoptera eridania), 2nd instar larvae, sprayed lima bean plants; settings: 96 h, 2nd instar larvae on lima bean, 4 days after treatment, read-out: mortality in comparison with untreated controls
Protocol: The active compounds were formulated by a Tecan liquid handler in 100% cyclohexanone as a 10,000 ppm solution supplied in tubes. The 10,000 ppm solution was serially diluted in 100% cyclohexanone to make interim solutions. These served as stock solutions for which final dilutions were made by the Tecan in 50% acetone:50% water (v/v) into 10 or 20 ml glass vials. A nonionic surfactant (Kinetic®) was included in the solution at a volume of 0.01% (v/v). The vials were then inserted into an automated electrostatic sprayer equipped with an atomizing nozzle for application to plants/insects.
Lima bean plants (variety Sieva) were grown 2 plants to a pot and selected for treatment at the 1st true leaf stage. Test solutions were sprayed onto the foliage by an automated electrostatic plant sprayer equipped with an atomizing spray nozzle. The plants were dried in the sprayer fume hood and then removed from the sprayer. Each pot was placed into perforated plastic bags with a zip closure. About 10 to 11 armyworm larvae were placed into the bag and the bags zipped closed. Test plants were maintained in a growth room at about 250C and about 20-40% relative humidity for 4 days, avoiding direct exposure to fluorescent light (24 hour photoperiod) to prevent trapping of heat inside the bags. Mortality and reduced feeding were assessed 4 days after treatment, compared to untreated control plants.

[3] = tested on: yellow fever mosquito (Aedes aegypti); experiment: whole plant or invertebrate; settings: 48 h, larval mortality visually assessed after 2 days, read-out: mortality in comparison with untreated controls
Protocol: For evaluating control of yellow fever mosquito (Aedes aegypti) the test unit consisted of 96-well-microtiter plates containing 200 μl of tap water per well and 5-15 freshly hatched A. aegypti larvae.
The active compounds were formulated using a solution containing 75% (v/v) water and 25% (v/v) DMSO. Different concentrations of formulated compounds or mixtures were sprayed onto the insect diet at 2.5 μl, using a custom built micro atomizer, at two replications.
After application, microtiter plates were incubated at 28±1° C., 80±5% RH for 2 days. Larval mortality was then visually assessed.

[4] = tested on: Silverleaf Whitefly (Bemisia argentifoli) (Adults); experiment: Action on silverleaf whitefly (Bemisia argentifoli) adults, sprayed cotton plants; settings: Bemisia argentifolii, 72 h, 3 days after treatment, read-out: mortality in comparison with untreated controls
Protocol: The active compounds were formulated by a Tecan liquid handler in 100% cyclohexanone as a 10,000 ppm solution supplied in tubes. The 10,000 ppm solution was serially diluted in 100% cyclohexanone to make interim solutions. These served as stock solutions for which final dilutions were made by the Tecan in 50% acetone:50% water (v/v) into 5 or 10 ml glass vials. A nonionic surfactant (Kinetic®) was included in the solution at a volume of 0.01% (v/v). The vials were then inserted into an automated electrostatic sprayer equipped with an atomizing nozzle for application to plants/insects.
Cotton plants at the cotyledon stage (one plant per pot) were sprayed by an automated electrostatic plant sprayer equipped with an atomizing spray nozzle. The plants were dried in the sprayer fume hood and then removed from the sprayer. Each pot was placed into a plastic cup and about 10 to 12 whitefly adults (approximately 3-5 days old) were introduced. The insects were collected using an aspirator and a nontoxic Tygon® tubing connected to a barrier pipette tip. The tip, containing the collected insects, was then gently inserted into the soil containing the treated plant, allowing insects to crawl out of the tip to reach the foliage for feeding. Cups were covered with a reusable screened lid. Test plants were maintained in a growth room at about […] and about 20-40% relative humidity for 3 days, avoiding direct exposure to fluorescent light (24 hour photoperiod) to prevent trapping of heat inside the cup. Mortality was assessed 3 days after treatment, compared to untreated control plants.

[5] = tested on: Orchid thrips (Dichromothrips corbetti); experiment: Action on orchid thrips (Dichromothrips corbetti), floral-immersion technique; settings: adult thrips, mortality 72 hours after treatment, read-out: mortality in comparison with untreated controls
Protocol: Dichromothrips corbetti adults used for bioassay were obtained from a colony maintained continuously under laboratory conditions. For testing purposes, the test compound is diluted in a 1:1 mixture of acetone:water (vol:vol), plus Kinetic® HV at a rate of 0.01% v/v.
Thrips potency of each compound was evaluated by using a floral-immersion technique. All petals of individual, intact orchid flowers were dipped into treatment solution and allowed to dry in Petri dishes. Treated petals were placed into individual re-sealable plastic along with about 20 adult thrips. All test arenas were held under continuous light and a temperature of about 28° C. for duration of the assay. After 3 days, the numbers of live thrips were counted on each petal. The percent mortality was recorded 72 hours after treatment.

[6] = tested on: Diamond Back Moth (Plutella xylostella); experiment: Action on diamond back moth (Plutella xylostella), cabbage leaf dip; settings: foliar, 3rd instar larvae on dipped cabbage leaves, 72 hours after treatment, read-out: mortality in comparison with untreated controls
Protocol: The active compound is dissolved at the desired concentration in a mixture of 1:1 (vol:vol) distilled water:acetone. Surfactant (Kinetic® HV) is added at a rate of 0.01% (vol/vol).The test solution is prepared at the day of use.
Leaves of cabbage were dipped in test solution and air-dried. Treated leaves were placed in petri dishes lined with moist filter paper and inoculated with ten 3rd instar larvae. Mortality was recorded 72 hours after treatment. Feeding damages were also recorded using a scale of 0-100%.

[7] = tested on: boll weevil (Anthonomus grandis); experiment: Action on boll weevil (Anthonomus grandis), 96-well microtiter plate diet test; settings: 120 h, egg and larval mortality after 5 days, read-out: mortality in comparison with untreated controls
Protocol: For evaluating control of boll weevil (Anthonomus grandis) the test unit consisted of 96-well-microtiter plates containing an insect diet and 5-10 A. grandis eggs.
The compounds were formulated using a solution containing 75% v/v water and 25% v/v DMSO. Different concentrations of formulated compounds were sprayed onto the insect diet at 5 μl, using a custom built micro atomizer, at two replications.
After application, microtiter plates were incubated at about 25±1° C. and about 75±5% relative humidity for 5 days. Egg and larval mortality was then visually assessed.

CC(/C=N/N=C1\SCC(=O)N1c1ccccc1C(C)C)=C\c1cnc(N(C)c2ccc(OC(F)(F)F)cc2)nc1 [Compound C-7, (2Z)-3-(2-isopropylphenyl)-2-[(E)-[(E)-2-methyl-3-[2-[N-methyl-4-(trifluoromethoxy)anilino]pyrimidin-5-yl]prop-2-enylidene]hydrazono]thiazolidin-4-one]
≥ 75%: mortality at 800 ppm [1] | mortality at 300 ppm [2] | mortality at 800 ppm [3] | mortality at 300 ppm [4] | mortality at 500 ppm [5] | mortality at 500 ppm [6] | mortality at 800 ppm [7]

CC(/C=N/NC(=S)Nc1ccccc1C(C)C)=C\c1cnc(N(C)c2ccc(OC(F)(F)F)cc2)nc1C [Compound C-16, 1-(2-isopropylphenyl)-3-[(E)-[(E)-2-methyl-3-[4-methyl-2-[N-methyl-4-(trifluoromethoxy)anilino]pyrimidin-5-yl]prop-2-enylidene]amino]thiourea]
≥ 75%: mortality at 800 ppm [1] | mortality at 300 ppm [2] | mortality at 800 ppm [3] | mortality at 300 ppm [4] | mortality at 500 ppm [5] | mortality at 500 ppm [6] | mortality at 800 ppm [7]

CC(/C=N/NC(=S)Nc1ccccc1C(C)C)=C\c1cnc(N(C)c2ccc(OC(F)(F)F)cc2)c(N(C)C)c1 [Compound C-8, 1-[(E)-[(E)-3-[5-(dimethylamino)-6-[N-methyl-4-(trifluoromethoxy)anilino]-3-pyridyl]-2-methyl-prop-2-enylidene]amino]-3-(2-isopropylphenyl)thiourea]
≥ 75%: mortality at 800 ppm [1] | mortality at 300 ppm [2] | mortality at 300 ppm [4] | mortality at 500 ppm [6] | mortality at 800 ppm [7]

CC(/C=N/NC(=S)Nc1ccccc1C(C)C)=C\c1ccc(N(C)c2ccc(OC(F)(F)F)cc2)nn1 [Compound C-26, 1-(2-isopropylphenyl)-3-[(E)-[(E)-2-methyl-3-[6-[N-methyl-4-(trifluoromethoxy)anilino]pyridazin-3-yl]prop-2-enylidene]amino]thiourea]
≥ 75%: mortality at 800 ppm [1] | mortality at 300 ppm [2] | mortality at 300 ppm [4] | mortality at 500 ppm [5] | mortality at 500 ppm [6] | mortality at 800 ppm [7]

CC(/C=N/N=C1\SCC(=O)N1c1ccccc1C(C)C)=C\c1ccc(N(C)c2ccc(OC(F)(F)F)cc2)nn1 [Compound C-27, (2Z)-3-(2-isopropylphenyl)-2-[(E)-[(E)-2-methyl-3-[6-[N-methyl-4-(trifluoromethoxy)anilino]pyridazin-3-yl]prop-2-enylidene]hydrazono]thiazolidin-4-one]
≥ 75%: mortality at 800 ppm [1] | mortality at 300 ppm [2] | mortality at 800 ppm [3] | mortality at 500 ppm [5] | mortality at 500 ppm [6] | mortality at 800 ppm [7]

CC(/C=N/NC(=S)Nc1ccccc1C(C)C)=C\c1ccc(N(C)c2ccc(OC(F)(F)F)cc2)nc1 [Compound C-15, 1-(2-isopropylphenyl)-3-[(E)-[(E)-2-methyl-3-[6-[N-methyl-4-(trifluoromethoxy)anilino]-3-pyridyl]prop-2-enylidene]amino]thiourea]
≥ 75%: mortality at 800 ppm [1] | mortality at 300 ppm [2] | mortality at 300 ppm [4] | mortality at 500 ppm [5] | mortality at 500 ppm [6] | mortality at 800 ppm [7]

Cc1nc(N(C)c2ccc(OC(F)(F)F)cc2)ncc1CC(C)/C=N/NC(=S)Nc1ccccc1C(C)C (stereo not shown) [Compound C-22, 1-(2-isopropylphenyl)-3-[(E)-[2-methyl-3-[4-methyl-2-[N-methyl-4-(trifluoromethoxy)anilino]pyrimidin-5-yl]propylidene]amino]thiourea]
≥ 75%: mortality at 800 ppm [1] | mortality at 300 ppm [4] | mortality at 800 ppm [7]

CC(/C=N/NC(=S)Nc1ccccc1C(C)C)=C\c1cnc(Nc2ccc(OC(F)(F)F)cc2)nc1 [Compound C-1, 1-(2-isopropylphenyl)-3-[(E)-[(E)-2-methyl-3-[2-[4-(trifluoromethoxy)anilino]pyrimidin-5-yl]prop-2-enylidene]amino]thiourea]
≥ 75%: mortality at 800 ppm [1] | mortality at 300 ppm [2] | mortality at 800 ppm [3] | mortality at 500 ppm [5] | mortality at 500 ppm [6] | mortality at 800 ppm [7]
